The record followed here is patent US20080233216A1, “Composition Comprising the Extract of Siegesbeckiae Herba For Preventing and Treating Arthritis and the Use Thereof” (Industry Academic Cooperation Foundation Of Kyunghee …, priority 2006, published 2008).

What all share (type): in vivo
The test system of assay [1] is Male ICR mouse. Put plainly: Arachidonic acid induced ear edema. To be noted: 100 mg/kg oral; ear thickness 1 hour after arachidonic acid. The method, then:
In order to determine the anti-inflammatory activity of inventive extract, following test using arachidonic acid-induced ear edema was performed according to method disclosed in the literature (Zhou H et al., Biol. Pharm. Bull., 29(2) pp 253-260, 2006).
Male ICR mouse (Jung Ang laboratory animal, Japan) weighing from 20 to 30 g was used as an experimental animal and each group consists of 10 mice. […] After 1 hour, the increased rate of ear thickness was calculated by comparing with that of left ear and the result was shown in Table 3.

Assay [2] deals with Male ICR mouse. Put plainly: Acetic acid induced writhing analgesia test. Conditions: 100 mg/kg oral, 1 h before 0.7% acetic acid; writhing counted 10 min. The method, then:
In order to determine the analgesic activity of the inventive extract of the present invention, acetic acid-induced writhing test was performed according to the method disclosed in the literature as follows (Whittle B A, Brit. J. Pharmacol. Chemother., 22, pp 246-253, 1964).
Male ICR mouse (Jung Ang laboratory animal, Japan) weighing from 20 to 25 g was acclimated for several days and each group consists of 10 mice.

Assay [3] relates to Male ICR mouse. Put plainly: Croton oil induced ear oedema. Conditions: 100 mg/kg oral; ear thickness 4 hours after 2.5% croton oil. The method, then:
In order to determine the anti-inflammatory activity of inventive extract, following test using croton oil-induced ear edema was performed according to method disclosed in the literature (Zhang B et al., Eur. J. Pharmacol., 530(1-2), pp 166-171, 2006).
Male ICR mouse (Jung Ang laboratory animal, Japan) weighing from 20 to 30 g was used as an experimental animal and each group consists of 6 mice. […] After 4 hours, the increased rate of ear thickness was calculated by comparing with that of left ear and the result was shown in Table 4.

The structures appear in SMILES notation.

Take `Cc1ccc(-c2cc(C(F)(F)F)nn2-c2ccc(S(N)(=O)=O)cc2)cc1` [Celecoxib]: the “Inhibition rate of edema (%)” value in the assay with Male ICR mouse [1] was 25.29%; with Male ICR mouse [3], 33.12%. The “Inhibition of writhing (%)” value in the assay on Male ICR mouse [2] is recorded as 61.9%.
